# Measurements as given in PMC5520048 (Nature Communications, 2017).
# Columns and labels:
# Human albumin = molecular target: T1, Human albumin (Homo sapiens, UniProt P02768); experiment: Fluorescence polarization albumin binding assay, purified human albumin
# T1 construct: purchased Sigma-Aldrich A1653
# Procedure: Forty-five microlitre of the dilutions were added to 15 μl of fluorescent peptide (100 nM) in black 96-well half area microtitre plates. […] The final concentration of fluorescent peptide was 25 nM in all wells. Fluorescence anisotropy was measured with an Infinite M200Pro plate reader (Tecan) using an excitation filter at 485 nm and an emission filter at 535 nm. Dissociation constant (KD) were determined by nonlinear regression analysis of anisotropy versus the total concentration of proteins [P]T using the following equation: […]
# A is the experimental fluorescence anisotropy. Af and Ab are the fluorescence anisotropy for the free and the fully bound fluorescent ligand, respectively. [L]T and [P]T represent the total fluorescent ligand and protein concentration, respectively. KD is the dissociation constant for the binding equilibrium. Values were calculated with Prism 5 (GraphPad software).
# [1] = molecular target: insulin detemir (Homo sapiens) (UniProt P01308); conditions: cited from earlier work
# Chain of insulin detemir (Homo sapiens) (F8WCM5 25-53, chain 1 of 2): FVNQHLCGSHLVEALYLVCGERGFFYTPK
# Chain of insulin detemir (Homo sapiens) (P01308 90-110, chain 2 of 2): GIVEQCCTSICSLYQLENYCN
# [2] = applied intravenously; cited from earlier work
# albumin = conditions: cited from earlier work
substance,measurement,setting,value
(F)-EYEKpalmEYE [tag],improvement of Kd compared to the starting peptide-palmitoyl tag,Human albumin,27 fold
albumin (from UniProt P02768),Kd,[1],4.2 µM
oxytocin,half-life,[2],10 to 15 min
insulin degludec,higher affinity for albumin than insulin detemir,albumin,2.4 fold
